Test results from PubChem BioAssay AID2060898 (Molecular Pharmacology Branch, DTP, NCI, 2025).

Tested on: 616215-338-R-J1-PDC complex spheroid viability
Experiment: Anticancer human tumor 616215-338-R-J1-PDC patient-derived colon adenocarcinoma cell line growth inhibition [RAS]
Conditions: for viability, T/C: stronger effect = lower value
Method in brief: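 Agents were tested in combination matrices in half-log decrements from a top concentration at or near clinical Cmax (10 microM if undetermined). Targets were multi-cell spheroids of tumour lines plus HUVEC and MSC stromal cells.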

[1] = curve of first compound, second compound 0.000949 µM
[2] = curve of first compound, second compound 0.003 µM
[3] = curve of first compound, second compound 0.00949 µM
[4] = curve of first compound, second compound 0.03 µM
[5] = curve of first compound, second compound 0.0949 µM
[6] = curve of first compound, second compound 0.3 µM
[7] = second compound 0.000949 µM, first compound 0.0316 µM
[8] = second compound 0.000949 µM, first compound 0.1 µM
[9] = second compound 0.000949 µM, first compound 0.316 µM
[10] = second compound 0.000949 µM, first compound 1 µM
[11] = second compound 0.000949 µM, first compound 3.16 µM
[12] = second compound 0.000949 µM, first compound 10 µM
[13] = second compound 0.003 µM, first compound 0.0316 µM
[14] = second compound 0.003 µM, first compound 0.1 µM
[15] = second compound 0.003 µM, first compound 0.316 µM
[16] = second compound 0.003 µM, first compound 1 µM
[17] = second compound 0.003 µM, first compound 3.16 µM
[18] = second compound 0.003 µM, first compound 10 µM
[19] = second compound 0.00949 µM, first compound 0.0316 µM
[20] = second compound 0.00949 µM, first compound 0.1 µM
[21] = second compound 0.00949 µM, first compound 0.316 µM
[22] = second compound 0.00949 µM, first compound 1 µM
[23] = second compound 0.00949 µM, first compound 3.16 µM
[24] = second compound 0.00949 µM, first compound 10 µM
[25] = second compound 0.03 µM, first compound 0.0316 µM
[26] = second compound 0.03 µM, first compound 0.1 µM
[27] = second compound 0.03 µM, first compound 0.316 µM
[28] = second compound 0.03 µM, first compound 1 µM
[29] = second compound 0.03 µM, first compound 3.16 µM
[30] = second compound 0.03 µM, first compound 10 µM
[31] = second compound 0.0949 µM, first compound 0.0316 µM
[32] = second compound 0.0949 µM, first compound 0.1 µM
[33] = second compound 0.0949 µM, first compound 0.316 µM
[34] = second compound 0.0949 µM, first compound 1 µM
[35] = second compound 0.0949 µM, first compound 3.16 µM
[36] = second compound 0.0949 µM, first compound 10 µM
[37] = second compound 0.3 µM, first compound 0.0316 µM
[38] = second compound 0.3 µM, first compound 0.1 µM
[39] = second compound 0.3 µM, first compound 0.316 µM
[40] = second compound 0.3 µM, first compound 1 µM
[41] = second compound 0.3 µM, first compound 3.16 µM
[42] = second compound 0.3 µM, first compound 10 µM
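Further: spheroids exposed to agents for seven days before viability readout.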
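Wherever viability, T/C is given: 100% = DMSO vehicle control viability.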

SMILES: CC(=O)OC12COC1CC(O)C1(C)C(=O)C(O)C3=C(C)C(OC(=O)C(O)C(NC(=O)OC(C)(C)C)c4ccccc4)CC(O)(C(OC(=O)c4ccccc4)C21)C3(C)C (stereo unspecified) + CCn1c(-c2cc(N3CCN(C)CC3)cnc2C(C)OC)c2c3cc(ccc31)-c1csc(n1)CC(NC(=O)C1CC1C)C(=O)N1CCCC(N1)C(=O)OCC(C)(C)C2
- IC50 [1]: < 0.0316 µM
- IC50 [2]: < 0.0316 µM
- IC50 [3]: < 0.0316 µM
- IC50 [4]: < 0.0316 µM
- IC50 [5]: < 0.0316 µM
- IC50 [6]: < 0.0316 µM
- viability, T/C [7]: 27.1%
- viability, T/C [8]: 20.3%
- viability, T/C [9]: 18.9%
- viability, T/C [10]: 19.9%
- viability, T/C [11]: 20.7%
- viability, T/C [12]: 24%
- viability, T/C [13]: 22.3%
- viability, T/C [14]: 18.3%
- viability, T/C [15]: 15.9%
- viability, T/C [16]: 19.3%
- viability, T/C [17]: 18.8%
- viability, T/C [18]: 24%
- viability, T/C [19]: 18.5%
- viability, T/C [20]: 16.4%
- viability, T/C [21]: 13.3%
- viability, T/C [22]: 12%
- viability, T/C [23]: 17.2%
- viability, T/C [24]: 18.7%
- viability, T/C [25]: 15.6%
- viability, T/C [26]: 13.4%
- viability, T/C [27]: 13.1%
- viability, T/C [28]: 13.2%
- viability, T/C [29]: 14.5%
- viability, T/C [30]: 16.8%
- viability, T/C [31]: 15.4%
- viability, T/C [32]: 12.4%
- viability, T/C [33]: 10.8%
- viability, T/C [34]: 13.4%
- viability, T/C [35]: 13.5%
- viability, T/C [36]: 14%
- viability, T/C [37]: 14.9%
- viability, T/C [38]: 13.3%
- viability, T/C [39]: 10.7%
- viability, T/C [40]: 11.9%
- viability, T/C [41]: 13.9%
- viability, T/C [42]: 16.3%

SMILES: CC(C)NCC(C(=O)N1CCN(c2ncnc3c2C(C)CC3O)CC1)c1ccc(Cl)cc1 (stereo unspecified) + CCn1c(-c2cccnc2C(C)OC)c2c3cc(ccc31)N1CCOC(CC(NC(=O)C(C(C)C)N(C)C(=O)C3(F)CCN(C(=O)C#CC(C)(C)N(C)C)CC3)C(=O)N3CCCC(N3)C(=O)OCC(C)(C)C2)C1
- IC50 [1]: 8.75 µM
- IC50 [2]: > 10 µM
- IC50 [3]: > 10 µM
- IC50 [4]: 8.38 µM
- IC50 [5]: 6.15 µM
- IC50 [6]: 3 µM
- viability, T/C [7]: 106%
- viability, T/C [8]: 106%
- viability, T/C [9]: 102%
- viability, T/C [10]: 113%
- viability, T/C [11]: 90.7%
- viability, T/C [12]: 44.7%
- viability, T/C [13]: 98.1%
- viability, T/C [14]: 95.9%
- viability, T/C [15]: 94%
- viability, T/C [16]: 98.4%
- viability, T/C [17]: 97.4%
- viability, T/C [18]: 50.9%
- viability, T/C [19]: 112%
- viability, T/C [20]: 101%
- viability, T/C [21]: 93.5%
- viability, T/C [22]: 98.5%
- viability, T/C [23]: 85.5%
- viability, T/C [24]: 51.1%
- viability, T/C [25]: 99.7%
- viability, T/C [26]: 98.8%
- viability, T/C [27]: 105%
- viability, T/C [28]: 111%
- viability, T/C [29]: 96.2%
- viability, T/C [30]: 41.4%
- viability, T/C [31]: 118%
- viability, T/C [32]: 108%
- viability, T/C [33]: 111%
- viability, T/C [34]: 97.2%
- viability, T/C [35]: 73.9%
- viability, T/C [36]: 32.4%
- viability, T/C [37]: 116%
- viability, T/C [38]: 116%
- viability, T/C [39]: 108%
- viability, T/C [40]: 85.6%
- viability, T/C [41]: 48.1%
- viability, T/C [42]: 28.6%

SMILES: C#Cc1c(F)ccc2cc(O)cc(-c3ncc4c(N5CC6CCC(C5)N6)nc(OCC56CCCN5CC(F)C6)nc4c3F)c12 (stereo unspecified)
- viability, T/C (compound 0.0316 µM): 107% [middle of 8 runs]
- viability, T/C (compound 0.1 µM): 107% [middle of 8 runs]
- viability, T/C (compound 0.316 µM): 110% [middle of 8 runs]
- viability, T/C (compound 1 µM): 108% [middle of 8 runs]
- viability, T/C (compound 3.16 µM): 102% [middle of 8 runs]
- viability, T/C (compound 10 µM): 70.6% [middle of 8 runs]
- IC50 (compound alone, run of 06/10/2024): > 10 µM
